Test results published in publication PMC6508583 (Journal of the American Chemical Society, 2019).
≈ marks a conversion by molar mass, not a printed value. Where “and” joins values, the source holds several entries; their conditions need not be identical. Equal values may be shown once.

Legend:
[1] = tested on: wild-type bacterial ribosome; test: Cell-free translation assay, wild-type bacterial ribosome; type: biochemical; settings: in vitro translation inhibition
[2] = tested on: Mit13 hybrid ribosome (decoding A site of the human mitochondrial ribosome); type: biochemical; settings: for Selectivity Mit 13: Mit13 over wt bacterial ribosome; for IC50 Mit13: in vitro translation inhibition, Mit13 hybrid ribosome
[3] = tested on: A1555G mutant mitochondrial hybrid ribosome; type: biochemical, human; settings: for Selectivity A1555G: A1555G over wt bacterial ribosome; for IC50 A1555G: in vitro translation inhibition, A1555G mutant mitochondrial hybrid ribosome
[4] = tested on: Cyt14 hybrid ribosome (decoding A site of the human cytoplasmic ribosome); type: biochemical; settings: for Selectivity Cyt14: Cyt14 over wt bacterial ribosome; for IC50 Cyt 14: in vitro translation inhibition, Cyt14 hybrid ribosome
MRSA = test: Antibacterial activity against reference strains: MRSA; type: cell-based; settings: for Antibacterial activity (MIC) MRSA AG038: strain AG038; for Antibacterial activity (MIC) MRSA AG042: strain AG042 carries the AAC(6)’, ANT(4’,4’’) and APH(3’) genes
K. pneumoniae = test: Antibacterial activity against reference strains: K. pneumoniae; type: cell-based; settings: strain AG215
E. cloacae = test: Antibacterial activity against reference strains: E. cloacae; type: cell-based; settings: strain AG290
A. baumannii = test: Antibacterial activity against reference strains: A. baumannii; type: cell-based; settings: strain AG225
[5] = tested on: E. coli carrying specific resistance determinants; test: Activity against wild-type and engineered E. coli carrying specific AMEs or RMTs; type: cell-based; settings: for Activity (MIC) E. coli AG006: strain AG006, WT; for Activity (MIC) E. coli AG007: strain AG007, AAC(3); for Activity (MIC) E. coli AG008: strain AG008, ANT(2’’); for Activity (MIC) E. coli AG009: strain AG009, AAC(6’); for Activity (MIC) E. coli AG036: strain AG036, ANT(4′,4′′); for Activity (MIC) E. coli AG103: strain AG103, armA; for Activity (MIC) E. coli AG105: strain AG105, AAC(2′); for Activity (MIC) E. coli AG166: strain AG166, APH(3′)
[6] = tested on: NIH 3T3 mouse embryonic fibroblast cells; type: cell-based
E. coli [7] = test: Antibacterial activity against reference strains: E. coli; settings: for Antibacterial activity (MIC) E. coli AG001: strain AG001; for Antibacterial activity (MIC) E. coli AG003: strain AG003 carries the AAC(3) gene
P. aeruginosa = test: Antibacterial activity against reference strains: P. aeruginosa; settings: for Antibacterial activity (MIC) P. aeruginosa AG031: strain AG031 carries the APH(3’) gene
[8] = tested on: E coli 70S ribosome (helix 44, A1408); test: Quantitative dimethyl sulfate footprinting of the 70S ribosome; type: binding; settings: read-out: apparent Kd; DMS footprinting, % protection of N1 of A1408, E. coli 70S ribosome
[9] = tested on: wild-type E. coli clinical isolates; test: MIC distribution, clinical wild-type E. coli isolates; type: cell-based; settings: panel of wild-type clinical isolates
[10] = tested on: wild-type K. pneumoniae clinical isolates; test: MIC distribution, clinical wild-type K. pneumoniae isolates; type: cell-based; settings: panel of wild-type clinical isolates
[11] = tested on: wild-type E. cloacae clinical isolates; test: MIC distribution, clinical wild-type E. cloacae isolates; type: cell-based; settings: panel of wild-type clinical isolates
[12] = tested on: E. coli clinical isolates carrying two or more resistance determinants; test: Activity against E. coli clinical isolates with multiple resistance determinants; type: cell-based
[13] = tested on: K. pneumoniae clinical isolates carrying two or more resistance determinants; type: cell-based; settings: AAC(3), AAC(6’)
[14] = tested on: E. cloacae clinical isolates carrying two or more resistance determinants; type: cell-based; settings: AAC(6’)
Mycobacterium abscessus = test: microbe, parasite or virus in culture; type: cell-based
[15] = tested on: Mycobacterium tuberculosis clinical isolates; test: microbe, parasite or virus in culture; type: cell-based; settings: clinical isolates
E coli = test: Neutropenic mouse thigh infection model; type: in vivo; settings: dose 3 mg.kg^−1
E. coli [16] = test: Neutropenic mouse E. coli septicemia model; type: in vivo
[17] = tested on: Mycobacterium smegmatis wild type; test: Antibacterial activity, wild-type M. smegmatis

SMILES: CCSC1C(CO)OC(OC2C(N)CC(N)C(O)C2OC2OC(CO)C(OC3OC(CN)C(O)C(O)C3N)C2O)C(N)C1O (centres unmarked) [Compound 4, 4’-deoxy-4’-ethylthioparomomycin]
- IC50 wt [1]: 0.04 µg/mL (≈ 0.0606 µM)
- Selectivity Mit 13 [2]: 2775
- IC50 Mit13 [2]: 111 µg/mL (≈ 168 µM)
- Selectivity A1555G [3]: 1150
- IC50 A1555G [3]: 46 µg/mL (≈ 69.7 µM)
- Selectivity Cyt14 [4]: 1500
- IC50 Cyt 14 [4]: 60 µg/mL (≈ 90.9 µM)
- Antibacterial activity (MIC) MRSA AG038 (MRSA): 4 µg/mL
- Antibacterial activity (MIC) MRSA AG042 (MRSA): 2 to 4 µg/mL
- Antibacterial activity (MIC) K. pneumoniae AG215 (K. pneumoniae): 2 µg/mL
- Antibacterial activity (MIC) E. cloacae AG290 (E. cloacae): 2 to 4 µg/mL
- Antibacterial activity (MIC) A. baumannii AG225 (A. baumannii): 4 µg/mL
- Activity (MIC) E. coli AG006 [5]: 1 to 2 µg/mL
- Activity (MIC) E. coli AG007 [5]: 4 µg/mL
- Activity (MIC) E. coli AG008 [5]: 1 µg/mL
- Activity (MIC) E. coli AG009 [5]: 4 µg/mL
- Activity (MIC) E. coli AG036 [5]: 1 to 2 µg/mL
- Activity (MIC) E. coli AG103 [5]: 8 µg/mL
- Activity (MIC) E. coli AG105 [5]: 2 to 4 µg/mL
- Activity (MIC) E. coli AG166 [5]: 4 µg/mL
- loss of cell viability [6]: only minimal loss of cell viability
- Antibacterial activity (MIC) E. coli AG001 (E. coli [7]): 8 µg/mL
- Antibacterial activity (MIC) E. coli AG003 (E. coli [7]): 8 µg/mL
- Antibacterial activity (MIC) P. aeruginosa AG031 (P. aeruginosa): 32 µg/mL

SMILES: CCC[C@H]1[C@H](O)[C@@H](N)[C@@H](O[C@H]2[C@H](O[C@@H]3O[C@H](CO)[C@@H](O[C@H]4O[C@@H](CN)[C@@H](O)[C@H](O)[C@H]4N)[C@H]3O)[C@@H](O)[C@H](N)C[C@@H]2N)O[C@@H]1CO [Compound 5, 4’-deoxy-4’-propylparomomycin]
- IC50 wt [1]: 0.03 µg/mL (≈ 0.0467 µM)
- Selectivity Mit 13 [2]: 5567
- IC50 Mit13 [2]: 167 µg/mL (≈ 260 µM)
- Selectivity A1555G [3]: 1733
- IC50 A1555G [3]: 52 µg/mL (≈ 81 µM)
- Selectivity Cyt14 [4]: 2133
- IC50 Cyt 14 [4]: 64 µg/mL (≈ 99.7 µM)
- Antibacterial activity (MIC) MRSA AG038 (MRSA): 1 to 2 µg/mL
- Antibacterial activity (MIC) MRSA AG042 (MRSA): 2 µg/mL
- Antibacterial activity (MIC) K. pneumoniae AG215 (K. pneumoniae): 0.5 µg/mL
- Antibacterial activity (MIC) E. cloacae AG290 (E. cloacae): 0.5 to 1 µg/mL
- Antibacterial activity (MIC) A. baumannii AG225 (A. baumannii): 2 µg/mL
- Kd [8]: 340 ± 50 nM
- Activity (MIC) E. coli AG006 [5]: 0.5 to 1 µg/mL
- Activity (MIC) E. coli AG007 [5]: 2 µg/mL
- Activity (MIC) E. coli AG008 [5]: 0.5 to 1 µg/mL
- Activity (MIC) E. coli AG009 [5]: 1 to 2 µg/mL
- Activity (MIC) E. coli AG036 [5]: 1 µg/mL
- Activity (MIC) E. coli AG103 [5]: 2 µg/mL
- Activity (MIC) E. coli AG105 [5]: 1 µg/mL
- Activity (MIC) E. coli AG166 [5]: 1 to 2 µg/mL
- MIC90 E. coli [9]: 2 µg/mL (≈ 3.12 µM)
- MIC90 K. pneumoniae [10]: 1 µg/mL (≈ 1.56 µM)
- MIC90 E. cloacae [11]: 1 µg/mL (≈ 1.56 µM)
- Activity (MIC) E. coli isolate 201430298 ([12]; AAC(3), AAC(6’)): 1 µg/mL
- Activity (MIC) E. coli isolate 2014251408 ([12]; AAC(3), AAC(6’)): 2 µg/mL
- Activity (MIC) E. coli isolate 2014405344 ([12]; AAC(3), APH(3’), RmtB): 4 µg/mL
- Activity (MIC) E. coli isolate 201441114 ([12]; AAC(6’), ANT(2’’)): 1 µg/mL
- Activity (MIC) K. pneumoniae isolate 201440494 [13]: 0.5 µg/mL
- Activity (MIC) K. pneumoniae isolate 2014310114 [13]: 0.25 µg/mL
- Activity (MIC) K. pneumoniae isolate 2014310108 ([13]; RmtB): 1 µg/mL
- Activity (MIC) E. cloacae isolate 201435487 ([14]; AAC(3)): 0.5 µg/mL
- Activity (MIC) E. cloacae isolate 201333207 ([14]; AAC(3), APH(3’)): 0.5 µg/mL
- Activity (MIC) E. cloacae isolate 201385168 ([14]; AAC(3), RmtC): 1 µg/mL
- Activity (MIC) E. cloacae isolate 201430601 ([14]; ANT(2’’)): 0.5 µg/mL
- MIC M. abscessus, AAC(2’) gene deleted (Mycobacterium abscessus; AAC(2’) gene deleted): 4 µg/mL and 2 µg/mL
- MIC M. abscessus (Mycobacterium abscessus; AAC(2’) gene present): 4 µg/mL (≈ 6.23 µM)
- MIC M. tuberculosis clinical isolates [15]: 1 µg/mL (≈ 1.56 µM)
- log reduction in colony-forming units (CFUs) compared to vehicle (E coli): 1.5 log
- reduction of bacterial burden in the blood, more than the parent paromomycin at the same dose level (E. coli [16]; 4 mg.kg^−1): 1 log
- reduction of bacterial burden in the blood (E. coli [16]; 4 mg.kg^−1 dose): approximately 1.5 log units
- loss of cell viability [6]: only minimal loss of cell viability
- Antibacterial activity (MIC) Wild-type M. smegmatis [17]: 0.16 µg/mL
- Antibacterial activity (MIC) E. coli AG001 (E. coli [7]): 1 to 2 µg/mL
- Antibacterial activity (MIC) E. coli AG003 (E. coli [7]): 1 to 2 µg/mL
- Antibacterial activity (MIC) P. aeruginosa AG031 (P. aeruginosa): 8 µg/mL
- Antibacterial activity (MIC) P. aeruginosa AG220 (P. aeruginosa; strain AG220 carries the APH(3’) gene): 2 to 4 µg/mL
